Results from patent US10512691B2, “Systems and methods for targeted imaging and ablation of cardiac cells” (THE REGENTS OF THE UNIVERSITY OF MICHIGAN, priority 2012, dated 2019).
Where two headings read alike, the source gives them in different places. Peptide text beside a SMILES is read from it.

How the values were obtained:
cardiac tissue [1] = details: contemplated, citing Zahid et al.; cited from earlier work
cardiac tissue [2] = experiment: CTP transduction of cardiac tissue after peripheral intravenous injection; type: in vivo; details: 15 minutes post-peripheral intravenous injection in mice
Excerpt: In some embodiments, nanoparticles comprise cardiac targeting moieties. In some embodiments, targeting moieties target myocytes. In some embodiments, the cardiac targeting moiety is cardiac targeting peptide (CTP) (Zahid et al., PloS one 2010; 5:e12252, herein incorporated by reference in its entirety). This peptide has the sequence […] (SEQ ID NO:1). In some embodiments, variants (e.g., sequence variants) of cardiac targeting peptide that retain the ability to specifically bind to myocytes are utilized. […] Thus, CTP is specific to the heart and cell type specific to myocytes. CTP also works in rat, and sheep and human (Zahid, et. al, supra).

[3] = In vivo blood stability of photosensitizer; details: action of blood reducing enzymes
Excerpt: In vivo testing as described above was repeated with an improved CTP-Ce6-8-arm-PEG platform as described above.

[4] = known, when injected in blood; cited from earlier work

CC(C)C[C@H](NC(=O)[C@H](Cc1c[nH]cn1)NC(=O)[C@H](Cc1c[nH]c2ccccc12)NC(=O)[C@@H]1CCCN1C(=O)[C@H](C)N)C(=O)N[C@@H](CO)C(=O)N[C@@H](CO)C(=O)N[C@@H](CCC(N)=O)C(=O)N[C@@H](Cc1ccc(O)cc1)C(=O)N[C@@H](CO)C(=O)N[C@@H](CCCNC(=N)N)C(=O)N[C@H](C(=O)O)[C@@H](C)O [CTP] (H-APWHLSSQYSRT-OH; N-terminus and C-terminus assumed)
time for CTP to reach the heart (cardiac tissue [1]): approximately 15 minutes
transduction of cardiac tissue (cardiac tissue [2]): efficiently and specifically transduce cardiac tissue
uptake in other organs (cardiac tissue [2]): No other organ showed uptake except kidney glomeruli, limited to the cortex, and rare lung capillaries

CN(C)c1ccc2nc3ccc(=[N+](C)C)cc-3sc2c1 [methylene blue]
stability in blood in vivo [3]: decreased in vivo

chlorin e6 [Ce6]
stability in blood in vivo [4]: remain stable when injected in blood
